According to ChEMBL document CHEMBL1143984, “Anti-inflammatory activity profile of JANEX-1 in preclinical animal models” (Bioorg Med Chem, 2008):
pIC50: −log10 of the molar value. Calls of active or inactive are those of the source. The rule behind the calls is not given here.

Assays:
[1] = tested on: RAW; test: Inhibition of LPS-induced nitric oxide production in mouse RAW 264.7 cells assessed as nitrite formation; type: functional, cell-based
[2] = organism: Mus musculus; test: Antiinflammatory activity against LPS-galactosamine challenged C57BL/6J SIRS mouse model at 500 ug assessed as mortality within 24 hrs; type: functional, organism-based
[3] = tested on: HT-29; test: Inhibition of LPS-stimulated […] release in human HT29 cells after 6 hrs by ELISA; type: functional, cell-based
[4] = tested on: Mus musculus; test: Effect on TNF-mediated cytotoxicity against C3H-FeJ mouse […] cells at 4 mg/kg, ip after 3 days; type: functional; settings: route intraperitoneal
[5] = tested on: Mus musculus; test: Effect on TNF-mediated cytotoxicity against C3H-FeJ mouse […] cells at 4 mg/kg, ip after 7 days; type: functional; settings: route intraperitoneal
[6] = tested on: Mus musculus; test: Effect on TNF-mediated cytotoxicity against C3H-FeJ mouse L929 cells at 2 mg/kg, ip after 3 days; type: functional; settings: route intraperitoneal
[7] = tested on: Mus musculus; test: Effect on LPS-induced nitric oxide production in C3H-FeJ peritonitis mouse peritoneal macrophages at 2 mg/kg, ip after 3 days; type: functional; settings: route intraperitoneal
[8] = tested on: Mus musculus; test: Antiinflammatory activity against carrageenan-induced hind paw edema in ICR foot-pad mouse model assessed as reduction in paw swelling at 30 mg/kg, ip after 6 hrs; type: functional, organism-based; parameters: dose 30 mg/kg
[9] = tested on: Mus musculus; test: Antiinflammatory activity in paraffin oil challenged C3H-FeJ peritonitis mouse model assessed as peritoneal levage macrophage count per 10^5/mL at 2 mg/kg, ip after 3 days; type: functional; settings: route intraperitoneal
[10] = tested on: L929; test: Effect on TNF-mediated cytotoxicity against mouse L929 cells at 10 ug/mL after 18 hrs by crystal-violet staining assay; type: functional
[11] = tested on: Mus musculus; test: Antiinflammatory activity against TNBS-induced colitis in BALB/c IBD mouse model at 25 mg/kg, ip; type: functional, organism-based; parameters: dose 25 mg/kg
[12] = tested on: RAW; test: Inhibition of LPS-induced iNOS mRNA level in mouse RAW 264.7 cells by Northern blot analysis; type: functional, cell-based
[13] = tested on: Mus musculus; test: Antiinflammatory activity in paraffin oil challenged ip dosed C3H-FeJ peritonitis mouse model after 7 days; type: functional; settings: 168 h
[14] = tested on: HT-29; test: Inhibition of LPS-stimulated prostaglandin E2 release in human HT29 cells after 6 hrs by ELISA; type: functional, cell-based
[15] = tested on: Mus musculus; test: Effect on LPS-induced nitric oxide production in C3H-FeJ peritonitis mouse peritoneal macrophages at 4 mg/kg, ip after 3 days; type: functional; settings: route intraperitoneal
[16] = target: T1, Tyrosine-protein kinase JAK3 (Mus musculus) (UniProt Q62137); test: Reduction of LPS-induced JAK3 phosphorylation in mouse RAW 264.7 cells at 100 ug/mL by Western blot analysis; type: cell-based
T1 sequence (whole entry): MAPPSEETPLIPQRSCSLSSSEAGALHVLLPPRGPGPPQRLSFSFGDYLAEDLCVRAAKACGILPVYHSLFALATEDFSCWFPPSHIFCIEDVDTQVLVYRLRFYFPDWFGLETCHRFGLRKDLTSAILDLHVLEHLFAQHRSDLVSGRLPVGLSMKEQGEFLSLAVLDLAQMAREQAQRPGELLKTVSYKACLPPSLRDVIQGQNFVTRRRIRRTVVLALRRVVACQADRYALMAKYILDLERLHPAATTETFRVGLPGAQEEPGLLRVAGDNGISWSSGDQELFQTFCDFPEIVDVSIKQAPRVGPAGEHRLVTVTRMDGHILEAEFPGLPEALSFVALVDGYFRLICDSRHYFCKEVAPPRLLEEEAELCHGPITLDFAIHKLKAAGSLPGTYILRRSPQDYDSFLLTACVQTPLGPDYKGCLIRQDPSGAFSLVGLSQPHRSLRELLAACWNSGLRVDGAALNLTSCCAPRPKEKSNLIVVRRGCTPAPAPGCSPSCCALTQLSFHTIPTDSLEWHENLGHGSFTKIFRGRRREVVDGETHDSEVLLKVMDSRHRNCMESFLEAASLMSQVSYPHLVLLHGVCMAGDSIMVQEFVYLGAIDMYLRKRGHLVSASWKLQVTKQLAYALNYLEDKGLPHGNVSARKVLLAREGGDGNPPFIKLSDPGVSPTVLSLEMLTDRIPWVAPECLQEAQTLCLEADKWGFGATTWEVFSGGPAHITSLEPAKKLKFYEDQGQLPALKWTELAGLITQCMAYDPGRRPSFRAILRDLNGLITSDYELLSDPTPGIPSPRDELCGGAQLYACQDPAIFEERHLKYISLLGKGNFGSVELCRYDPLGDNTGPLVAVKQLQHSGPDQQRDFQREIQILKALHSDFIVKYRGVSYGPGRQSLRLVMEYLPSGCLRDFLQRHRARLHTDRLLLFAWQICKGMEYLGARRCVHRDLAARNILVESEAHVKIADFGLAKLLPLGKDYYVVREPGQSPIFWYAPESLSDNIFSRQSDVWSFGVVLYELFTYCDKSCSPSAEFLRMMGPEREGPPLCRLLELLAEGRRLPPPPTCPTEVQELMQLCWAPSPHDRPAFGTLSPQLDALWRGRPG

[17] = tested on: RAW; test: Inhibition of LPS-induced TNFalpha production in mouse RAW 264.7 cells after 4 hrs by ELISA; type: functional, cell-based
[18] = tested on: Mus musculus; test: Antiinflammatory activity in paraffin oil challenged C3H-FeJ peritonitis mouse model assessed as peritoneal levage macrophage count per 10^5/mL at 2 mg/kg, ip after 7 days; type: functional; settings: route intraperitoneal
[19] = tested on: RAW; test: Inhibition of LPS-induced TNFalpha mRNA level in mouse RAW 264.7 cells by Northern blot analysis; type: functional, cell-based
[20] = tested on: Mus musculus; test: Effect on TNF-mediated cytotoxicity against C3H-FeJ mouse L929 cells at 2 mg/kg, ip after 7 days; type: functional; settings: route intraperitoneal
[21] = tested on: Mus musculus; test: Effect on LPS-induced nitric oxide production in C3H-FeJ peritonitis mouse peritoneal macrophages at 2 mg/kg, ip after 7 days; type: functional; settings: route intraperitoneal
[22] = tested on: L929; test: Effect on TNF-mediated cytotoxicity against mouse L929 cells at 100 ug/mL after 18 hrs by crystal-violet staining assay; type: functional
[23] = tested on: L929; test: Effect on TNF-mediated cytotoxicity against mouse L929 cells at 1 ug/mL after 18 hrs by crystal-violet staining assay; type: functional
[24] = tested on: Mus musculus; test: Antiinflammatory activity in paraffin oil challenged C3H-FeJ peritonitis mouse model assessed as peritoneal levage macrophage count per 10^5/mL at 4 mg/kg, ip after 3 days; type: functional; settings: route intraperitoneal
[25] = tested on: Mus musculus; test: Effect on LPS-induced nitric oxide production in C3H-FeJ peritonitis mouse peritoneal macrophages at 4 mg/kg, ip after 7 days; type: functional; settings: route intraperitoneal
[26] = tested on: L929; test: Inhibition of LPS-induced nitric oxide production in mouse L929 cells assessed as nitrite formation; type: functional, cell-based
[27] = tested on: L929; test: Inhibition of LPS-induced TNFalpha production in mouse L929 cells after 4 hrs by ELISA; type: functional, cell-based; settings: L929, 4 h
[28] = tested on: Mus musculus; test: Antiinflammatory activity in paraffin oil challenged C3H-FeJ peritonitis mouse model assessed as peritoneal levage macrophage count per 10^5/mL at 4 mg/kg, ip after 7 days; type: functional; settings: route intraperitoneal
[29] = tested on: Mus musculus; test: Antiinflammatory activity against carrageenan-induced hind paw edema in CD1 foot-pad mouse model assessed as reduction in paw swelling at 30 mg/kg, ip after 6 hrs; type: functional, organism-based; parameters: dose 30 mg/kg

- pIC50 [1]: 5.85
- Activity [16]: Active
- pIC50 [17]: 3.90
Compound: COc1cc2ncnc(Nc3ccc(O)cc3)c2cc1OC [WHI-P131]
- Activity [2]: Non-toxic
- Activity [3]: Active
- Activity [4]: 18.8%
- Activity [5]: 34.6%
- Activity [6]: 31.8%
- Activity [7]: 40 µM
- Activity [8]: Active
- Activity [9]: 3.1
- Activity [10]: 25.7%
- Activity [11]: Active
- Activity [12]: Active
- ED50 [13]: 2.8 mg/kg
- Activity [14]: Active
- Activity [15]: 13 µM
- Activity [18]: 4.3
- Activity [19]: Dose-dependent effect
- Activity [20]: 45.3%
- Activity [21]: 3 µM
- Activity [22]: 0%
- Activity [23]: 45.9%
- Activity [24]: 2.3
- Activity [25]: 4 µM
- pIC50 [26]: 5.77
- pIC50 [27]: 4.84
- Activity [28]: 2.5
- Activity [29]: Active
